The source of these data is patent publication US4329362A, “2-Amino-4-(substituted hydrazino)-6-oxo pyrimidines” (Burroughs Wellcome Co., priority 1977, dated 1982).

The structures appear in SMILES notation. Counter-ions that a name gives are not always drawn.

The first series concerns the target dihydropteroic acid biosynthesis (DHPB): hydroxymethyldihydropteridine pyrophosphokinase and dihydropteroate synthetase. As to the kind of experiment: coupled assay of dihydropteroic acid biosynthesis (kinase + synthetase), 14C H2pteroate formation. The format is biochemical. The settings on record: coupled assay method; E. coli extract, 0-50% ammonium sulfate fraction; 14C in H2 pteroate from p-aminobenzoate-7-14C; read-out: Concentration in μM required to give 50% inhibition of DHPB. The text has this: Potential inhibitors of DHPB synthesis may be tested by investigating the inhibitory effect they impose in the enzymes responsible for the biosynthesis of dihydropteroic acid (DPtA), namely hydroxymethyldihydropteridine pyrophosphokinase (HMPPS), and dihydropteroate synthetase, hereinafter referred to as `synthetase`. In the following reaction equations the compounds are referred to by their abbreviated forms defined hereinbefore in the specification. [formula]
This reaction requires two enzymes since the starting substrates are H2 ptCH2 OH, ATP, and pAB, and the products are H2 pteroate and AMP.
The reactions are followed by determining the amount of ^14 C in H2 pteroate after separation from the substrate, p-aminobenzoate-7-^14 C, by paper chromatography.
As for `COc1ccc(C(=O)Cc2nn(C)c3nc(N)[nH]c(=O)c3c2=O)c(OC)c1` [7-Amino-3-(2,4-dimethoxyphenacyl)-1-methylpyrimido(4,5-c)pyridazine-4,5(1H,6H)-dione], the IC50 amounted to 0.14 µM. On the same count and under the same terms, the result for `CCCc1nn(C)c2nc(N)[nH]c(=O)c2c1=O` [n-C3 H7] reads 45 µM; that for `COc1cc(OC)c(C(=O)Cc2nn(C)c3nc(N)[nH]c(=O)c3c2=O)c(OC)c1` [7-Amino-3-(2,4,6-trimethoxyphenacyl)-1-methylpyrimido(4,5-c)pyridazine-4,5(1H, 6H)-dione], 2.7 µM.

Consider `CCOC(=O)C(C)c1nn(C)c2nc(N)[nH]c(=O)c2c1=O` (stereo not shown) [CH(CH3)CO2 C2 H5, 7-Amino-3-(1-ethoxycarbonylethyl)-1-methylpyrimido(4,5-c)pyridazine-4,5(1H,6H)-dione], for which the IC50 stood at 1.6 µM. On the same count and under the same terms, the result for `COC(C(=O)O)c1nn(C)c2nc(N)nc(O)c2c1=O` (stereo not shown) [CH(OCH3)CO2 H, 7-amino-1-methyl-3-((1-methoxy)carboxymethyl)-4-oxo-5-hydroxy-1,4-dihydropyrimido(4,5-c)pyridazine] reads 2.8 µM. Consider `CCOC(=O)C(OC)c1nn(C)c2nc(N)[nH]c(=O)c2c1=O` (stereo not shown) [CH(OCH3)CO2 C2 H5], for which the IC50 is 17 µM.

As to `COc1ccc(OC)c(C(=O)Cc2nn(C)c3nc(N)[nH]c(=O)c3c2=O)c1` [7-Amino-3-(2,5-dimethoxyphenacyl)-1-methylpyrimido(4,5-c)pyridazine-4,5(1H,6H)-dione], the IC50 was 0.06 µM. Same read-out and setting: the result for `COc1cc(CC(C#N)c2nn(C)c3nc(N)nc(O)c3c2=O)cc(OC)c1OC` (stereo not drawn) [7-amino-1-methyl-3-(α-cyano-3,4,5-trimethoxyphenethyl)-4-oxo-5-hydroxy-1,4-dihydropyrimido(4,5-c)pyridazine] reads 11 µM; that for `CCCCCCc1nn(C)c2nc(N)[nH]c(=O)c2c1=O` [n-C6 H13], 50 µM; that for `Cn1nc(-c2c[nH]c3ccccc23)c(=O)c2c(=O)[nH]c(N)nc21` [Example 3-Indolyl], 30 µM. Same read-out and setting: for `CC(=O)OCc1nn(C)c2nc(N)[nH]c(=O)c2c1=O` [CH2 OCOCH3, 7-Amino-3-acetoxymethyl-1-mehylpyrimido(4,5-c)pyridazine-4,5(1H, 6H)-dione] the value was 15 µM; for `COc1cc(Cc2nn(C)c3nc(N)nc(O)c3c2=O)cc(OC)c1OC` [7-amino-3-(3,4,5-trimethoxybenzyl)-1-methyl-4-oxo-5-hydroxy-1,4-dihydropyrimido(4,5-c)pyridazine], 0.77 µM; for `CCOC(=O)CCc1nn(C)c2nc(N)[nH]c(=O)c2c1=O` [CH2 CH2 CO2 C2 H5], 16 µM. On to `Cn1nc(Cc2ccccc2)c(=O)c2c(O)nc(N)nc21` [CH2 C6 H5, 7-amino-1-methyl-3-benzyl-4-oxo-5-hydroxy-1,4-dihydropyrimido(4,5-c)pyridazine], for which the IC50 was determined as 11 µM. Still for that read-out and setting: the result for `COc1ccc(Cc2nn(C)c3nc(N)nc(O)c3c2=O)cc1OC` [7-amino-3-(3,4-dimethoxybenzyl)-1-methyl-4-oxo-5-hydroxy-1,4-dihydropyrimido(4,5-c)pyridazine] reads 0.86 µM; that for `Cn1nc(C(=O)O)c(=O)c2c(=O)[nH]c(N)nc21` [CO2 H (disodium salt), 7-Amino-3-carboxy-1-methylpyrimido(4,5-c)pyridazine-4,5(1H, 6H)-dione Disodium Salt], 21 µM; that for `Cn1nc(CO)c(=O)c2c(=O)[nH]c(N)nc21` [CH2 OH, 7-Amino-3-hydroxymethyl-1-methylpyrimido(4,5-c)pyridazine-4,5(1H, 6H)-dione Sodium Salt], 12 µM. On the same count and under the same terms, for `COc1ccc(C(=O)Cc2nn(C)c3nc(N)[nH]c(=O)c3c2=O)cc1OC` [7-Amino-3-(3,4-dimethoxyphenacyl)-1-methylpyrimido(4,5-c)pyridazine-4,5(1H,6H)-dione] the value was 0.15 µM. As to `Cn1nc(CC(=O)c2cccc(O)c2)c(=O)c2c(=O)[nH]c(N)nc21` [7-Amino-3-(3-hydroxyphenacyl)-1-methylpyrimido(4,5-c)pyridazine-4,5(1H, 6H)-dione], the IC50 was 0.22 µM. Consider `CC(C(=O)O)c1nn(C)c2nc(N)[nH]c(=O)c2c1=O` (stereo not shown) [CH(CH3)CO2 H, 7-Amino-3-(1-carboxyethyl)-1-methylpyrimido(4,5-c)pyridazine-4,5(1H, 6H)-dione Disodium Salt], for which the IC50 came out at 3.7 µM. The same measure, in the same setting: the result for `Cn1nc(CC(=O)c2ccccc2)c(=O)c2c(=O)[nH]c(N)nc21` [CH2 COC6 H5, 7-Amino-3-phenacyl-1-methylpyrimido(4,5-c)pyridazine-4,5(1H, 6H)-dione] reads 0.76 µM; that for `Cc1nn(C)c2nc(N)[nH]c(=O)c2c1=O` [CH3, 7-Amino-1,3-dimethylpyrimido(4,5-c)pyridazine-4,5-(1H, 6H)-dione], 16 µM.

Regarding `Cn1nc(Cc2ccccc2[N+](=O)[O-])c(=O)c2c(O)nc(N)nc21` [7-amino-1-methyl-3-(2-nitrobenzyl)-4-oxo-5-hydroxy-1,4-dihydropyrimido(4,5-c)pyridazine], the IC50 was found to be 12 µM. The same measure, in the same setting: the result for `CCOC(=O)Cc1nn(C)c2nc(N)nc(O)c2c1=O` [CH2 CO2 C2 H5, 7-amino-1-methyl-3-(ethoxycarbonylmethyl)-4-oxo-5-hydroxy-1,4-dihydropyrimido(4,5-c)pyridazine] reads 6.2 µM; that for `CC(C)Cc1nn(C)c2nc(N)[nH]c(=O)c2c1=O` [iso-C4 H9], 20 µM; that for `CCc1nn(C)c2nc(N)[nH]c(=O)c2c1=O` [C2 H5], 33 µM. Turning to `COc1cc(C(=O)Cc2nn(C)c3nc(N)[nH]c(=O)c3c2=O)cc(OC)c1OC` [7-Amino-3-(3,4,5-trimethoxyphenacyl)-1-methylpyrimido(4,5-c)pyridazine-4,5(1H, 6H)-dione], the IC50 was determined as 0.03 µM.

As to `Cn1nc(-c2ccccc2)c(=O)c2c(O)nc(N)nc21` [C6 H5, 7-amino-1-methyl-3-phenyl-4-oxo-5-hydroxy-1,4-dihydropyrimido(4,5-c)pyridazine], the IC50 is 15 µM. Turning to `Cn1nc(CCC(=O)O)c(=O)c2c(=O)[nH]c(N)nc21` [CH2 CH2 CO2 H], the IC50 came out at 5.5 µM.

Test system in a further series: not listed separately
As to the kind of experiment: pKa values. The format is physicochemical. To be noted: read-out: pKa values (first value).
Regarding `Cc1nn(C)c2nc(N)[nH]c(=O)c2c1=O` [CH3, 7-Amino-1,3-dimethylpyrimido(4,5-c)pyridazine-4,5-(1H, 6H)-dione], the pKa (usually the pH at which an ionisable group is half protonated) is 4.1 ± 0.1.

Staying with this series, now noted: read-out: pKa values (second value).
Regarding `Cc1nn(C)c2nc(N)[nH]c(=O)c2c1=O` [CH3, 7-Amino-1,3-dimethylpyrimido(4,5-c)pyridazine-4,5-(1H, 6H)-dione], the pKa turned out to be 8.6 ± 0.1.
